Assay results taken from patent US10034886B2, “GLP-1 receptor modulators” (Celgene International II SÀRL, priority 2014, dated 2018).

The compounds below were run against T1, GLP-1R (Homo sapiens, UniProt P43220) (assay: EC20 GLP-1(9-36) PAM cAMP assay: dose response of compound in the presence of fixed concentration of GLP-1(9-36)). Conditions: GLP-1R CRE-bla CHO-K1 cells, compound dose response with fixed concentration of GLP-1(9-36), read-out: EC20 GLP-1(9-36) PAM EC50.
T1 construct: host or cells: GLP-1R CRE-bla CHO-K1 cells
T1 sequence (P43220 24-463): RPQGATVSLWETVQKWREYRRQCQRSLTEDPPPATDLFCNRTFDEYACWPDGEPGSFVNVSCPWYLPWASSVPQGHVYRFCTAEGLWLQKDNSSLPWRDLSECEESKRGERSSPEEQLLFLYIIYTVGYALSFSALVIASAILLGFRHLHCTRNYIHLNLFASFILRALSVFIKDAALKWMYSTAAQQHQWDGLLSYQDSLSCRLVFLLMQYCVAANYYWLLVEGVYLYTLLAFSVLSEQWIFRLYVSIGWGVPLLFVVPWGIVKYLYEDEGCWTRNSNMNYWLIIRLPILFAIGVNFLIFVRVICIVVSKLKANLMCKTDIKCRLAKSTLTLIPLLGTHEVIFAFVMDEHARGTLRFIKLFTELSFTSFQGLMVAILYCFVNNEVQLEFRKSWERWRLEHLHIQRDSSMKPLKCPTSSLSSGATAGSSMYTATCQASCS
T1 sequence (P01275 100-127 partner limits assumed): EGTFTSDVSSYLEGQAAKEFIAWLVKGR
Format: cell-based
Outline: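 Positive allosteric modulation read as cAMP accumulation: compound titrations (12 points) combined with an EC20 level of GLP-1(9-36) on CHO-K1 GLP-1R CRE-bla cells, IBMX present, 30 min, 37 °C, pH 7.4 buffer. Luminescence converted to cAMP via standards; non-linear fit gave EC50 and Emax.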

Row | Compound | EC50 [nM]
1 | CCCCCCOC1CN(c2cnc(-c3ccc(C[C@H](NC(=O)c4ccc(C(C)(C)C)s4)C(=O)N[C@H](C)C(=O)O)cc3)nc2)C1 [Compound 1273] | 5000 to 10000
2 | CCCOc1ccc(C(=O)N[C@@H](Cc2ccc(-c3ncc(-c4ccc(OCCCC(C)C)cc4)cn3)cc2)C(=O)N2CC(C(=O)O)C2)cc1 [Compound 1235] | 2500 to 5000
3 | CCc1ccc(C(=O)N[C@@H](Cc2ccc(-c3ncc(-c4ccc(OCCCC(C)C)cc4)cn3)cc2)C(=O)N2CC(C(=O)O)C2)cc1 [Compound 1228] | 800 to 2500
4 | CC[C@H]1CC[C@H](c2ccc(-c3cnc(-c4ccc(C[C@H](NC(=O)c5cnc(C6CC6)nc5)C(=O)O)cc4)nc3)cc2)CC1 [Compound 1391] | < 800
5 | CCC[C@H]1CC[C@H](C2CCN(c3cnc(-c4ccc(C[C@H](NC(=O)c5ccc(C(C)(C)C)s5)C(=O)NCCC(=O)O)cc4)nc3)CC2)CC1 [Compound 1433] | < 800
6 | CCCOc1ccc(-c2ccc(-c3cnc(-c4ccc(C[C@H](NC(=O)c5ccc(C(C)(C)C)s5)C(=O)N5CC(C(=O)O)C5)cc4)nc3)c(F)c2)cc1 [Compound 1331] | < 800
7 | CC(C)(C)c1ccc(C(=O)N[C@@H](Cc2ccc(-c3ncc(-c4ccc(-c5ccc(C(F)(F)F)c(F)c5F)cc4F)cn3)cc2)C(=O)N2CC(C(=O)O)C2)s1 [Compound 1216] | < 800
8 | CCC[C@H]1CC[C@H](C2CCN(c3cnc(-c4ccc(C[C@H](NC(=O)c5ccc(OC(C)C)cc5)C(=O)N5CC(C(=O)O)C5)cc4)nc3)CC2)CC1 [Compound 1535] | 800 to 2500
9 | CC[C@H]1CC[C@H](c2ccc(-c3cnc(-c4ccc(C[C@H](NC(=O)Cc5ccc(C(C)(C)C)s5)C(=O)N5CC(C(=O)O)C5)cc4)nc3)cc2)CC1 [Compound 1279] | 2500 to 5000
10 | CC(C)CCCOc1ccc(-c2cnc(-c3ccc(C[C@H](NC(=O)Cc4csc(C(C)(C)C)n4)C(=O)N4CC(C(=O)O)C4)cc3)nc2)cc1 [Compound 1244] | 2500 to 5000
11 | CCC[C@H]1CC[C@H](C2CCN(c3cnc(-c4ccc(C[C@H](NC(=O)c5ccc(C(C)(C)C)s5)C(=O)N[C@H](C(=O)O)[C@@H](C)O)cc4)nc3)CC2)CC1 [Compound 1469] | < 800
12 | C[C@@H](NC(=O)[C@H](Cc1ccc(-c2ncc(-c3ccc(-c4ccc(C#N)cc4)cc3)cn2)cc1)NC(=O)c1ccc(C(C)(C)C)s1)C(=O)O [Compound 1291] | 800 to 2500
13 | CCCc1ccc(CC2CN(c3cnc(-c4ccc(CC(NC(=O)c5ccc(C(C)(C)C)s5)C(=O)N5CC(C(=O)O)C5)cc4)nc3)C2)cc1 (stereo not drawn) [Compound 1509] | 5000 to 10000
14 | CCC[C@H]1CC[C@H](C2CCN(c3cnc(-c4ccc(CC(NC(=O)c5ccc(C(C)(C)C)s5)C(=O)NS(=O)(=O)C(C)C)cc4)nc3)CC2)CC1 (stereo partly drawn) [Compound 1545] | < 800

Same assay, conditions: dose response of compound in presence of fixed concentration of GLP-1(9-36), GLP-1R CRE-bla CHO-K1 cells, read-out: EC20 GLP-1(9-36) PAM EC50

Row | Compound | EC50 [nM]
15 | CCCCCCCOc1ccc(-c2cnc(-c3ccc(C[C@H](NC(=O)Cc4ccc(OCCCC)cc4)C(=O)N4CCC[C@H]4C(=O)O)cc3)nc2)cc1 [Compound 1070] | 800 to 2500
16 | CCOc1cc(-c2cnc(-c3ccc(C[C@H](NC(=O)c4ccc(C(C)(C)C)s4)C(=O)N[C@H](C)C(=O)O)cc3)nc2)cc(C(F)(F)F)c1 [Compound 1036] | 2500 to 5000
17 | CC(C)(C)c1ccc(C(=O)N[C@@H](Cc2ccc(-c3ncc(-c4nc(-c5cccc(Oc6ccccc6)c5)no4)cn3)cc2)C(=O)NCCC(=O)O)cc1 [Compound 757] | 800 to 2500
18 | COc1ccc(-c2ccc(-c3cnc(-c4ccc(C[C@H](NC(=O)c5ccc(C(C)(C)C)s5)C(=O)N[C@H](C)C(=O)O)cc4)nc3)cc2)cc1 [Compound 1002] | 800 to 2500
19 | CCCCCCCOc1ccc(-c2cnc(-c3ccc(C[C@H](NC(=O)c4ccc(CCC)s4)C(=O)N4CC(C(=O)O)C4)cc3)nc2)cc1 [Compound 1107] | 800 to 2500
20 | CCCCCCCOc1ccc(-c2cnc(-c3ccc(C[C@H](NC(=O)c4ccc(C(C)(C)C)s4)C(=O)N4CC5(CC(C(=O)O)C5)C4)cc3)nc2)cc1 [Compound 877] | 800 to 2500
21 | CC[C@H]1CC[C@H](c2ccc(N3CCN(c4ccc(C[C@H](NC(=O)c5ccc(C(C)(C)C)s5)C(=O)N5CC(C(=O)O)C5)cc4)CC3)cc2)CC1 [Compound 1060] | 2500 to 5000
22 | Cc1cccc(-c2noc(-c3cnc(-c4ccc(C[C@H](NC(=O)c5ccc(C(C)(C)C)cc5)C(=O)NCCC(=O)O)cc4)nc3)n2)c1 [Compound 750] | 2500 to 5000
23 | C[C@@H](NC(=O)[C@H](Cc1ccc(-c2ncc(-c3ccc(C4=CCC(F)(F)CC4)cc3)cn2)cc1)NC(=O)c1ccc(C(C)(C)C)s1)C(=O)O [Compound 1151] | < 800

More lines, now with the values ahead:

Row | EC50 [nM] | Compound
24 | 800 to 2500 | CCCCCCCOc1ccc(-c2cnc(-c3ccc(C[C@H](NC(=O)c4ccc(C(C)(C)C)cc4)C(=O)N4CC[C@H](C(=O)O)C4)cc3)nc2)cc1 [Compound 632]
25 | 800 to 2500 | CCCCCCCOc1ccc(-c2cnc(-c3ccc(C[C@H](NC(=O)c4ccc(C(C)(C)C#N)cc4)C(=O)N4CC[C@H](C(=O)O)C4)cc3)nc2)cc1 [Compound 860]
26 | 2500 to 5000 | CCCCCCCOc1ccc(-c2cnc(-c3ccc(C[C@H](NC(=O)c4ccc(CC(C)C)cc4)C(=O)N4CCC[C@H]4C(=O)O)cc3)nc2)cc1 [Compound 1076]
27 | 5000 to 10000 | CCCCCCCOc1ccc(-c2cnc(-c3ccc(C[C@H](NC(=O)c4ccc(C(C)(C)C)s4)C(=O)NCCN(C)C)cc3)nc2)cc1 [Compound 385]
28 | < 800 | CCCCCCCOc1ccc(-c2cnc(-c3ccc(CC(NC(=O)c4ccc(C(C)(C)C)s4)C(=O)N[C@@H](Cc4c[nH]c5ccccc45)C(=O)O)cc3)nc2)cc1 (stereo partly drawn) [Compound 432]
29 | 800 to 2500 | CCCCCCCOc1ccc(-c2cnc(-c3ccc(C[C@H](NC(=O)c4ccc(C(C)(C)C)s4)C(=O)N[C@H](C(=O)O)[C@H](C)CC)cc3)nc2)cc1 [Compound 657]
30 | 2500 to 5000 | CCCCCCCOc1ccc(-c2cnc(-c3ccc(C[C@H](NC(=O)c4ccc(C(C)(C)C)cc4OC)C(=O)NC(C(=O)O)C(O)c4ccccc4)cc3)nc2)cc1 (stereo partly drawn) [Compound 952]
31 | 2500 to 5000 | CCCCCCCOc1ccc(-c2cnc(-c3ccc(C[C@H](NC(=O)c4ccc(C(C)(C)C)cc4)C(=O)N[C@@H](CC(=O)O)C(=O)N4CCCCC4)cc3)nc2)cc1 [Compound 504]
32 | 800 to 2500 | CCCCCCCOc1ccc(-c2cnc(-c3ccc(C[C@H](NC(=O)c4cnn(C(C)(C)C)c4)C(=O)N4CC[C@H](C(=O)O)C4)cc3)nc2)cc1 [Compound 867]
33 | 800 to 2500 | CCCCCCCOc1ccc(-c2cnc(-c3ccc(C[C@H](NC(=O)c4ccc(C(C)(C)C)s4)C(=O)NC(C(=O)O)c4cccc(OC)c4)cc3)nc2)cc1 (stereo partly drawn) [Compound 629]
34 | 2500 to 5000 | CCCCCCCOc1ccc(-c2cnc(-c3ccc(C[C@H](NC(=O)c4ccc(C(C)(C)C)s4)C(=O)N[C@@H](CN)C(=O)O)cc3)nc2)cc1 [Compound 394]
35 | < 800 | CCCCCCCOc1ccc(-c2cnc(-c3ccc(C[C@H](NC(=O)c4ccc(C(C)(C)C)cc4)C(=O)N4C[C@@H](O)C[C@H]4C(=O)O)cc3)nc2)cc1 [Compound 587]
36 | 800 to 2500 | CCCCCCCOc1ccc(-c2cnc(-c3ccc(CC(NC(=O)c4ccc(C(C)(C)C)s4)C(=O)N[C@@H](CC(C)C)C(=O)O)cc3)nc2)cc1 (stereo partly drawn) [Compound 408]
37 | 2500 to 5000 | CCCCCCCOc1ccc(-c2cnc(-c3ccc(C[C@H](NC(=O)c4ccc(OCCC)cc4)C(=O)N4CCC[C@H]4C(=O)O)cc3)nc2)cc1 [Compound 1071]
38 | 800 to 2500 | CCCCCCCc1ccc(-c2cnc(-c3ccc(C[C@H](NC(=O)c4ccc(C(C)(C)C)cc4)C(=O)N[C@H](C)C(=O)O)cc3)nc2)cc1 [Compound 724]
39 | 800 to 2500 | CCCCCCOc1ccc(-c2cnc(-c3ccc(C[C@H](NC(=O)c4ccc(C(C)(C)C)s4)C(=O)N4CC(C(=O)O)C4)cc3)nc2)cc1 [Compound 777]
40 | 2500 to 5000 | CCCCCCCOc1ccc(-c2cnc(-c3ccc(C[C@H](NC(=O)c4ccc(C(C)(C)C)cc4)C(=O)N[C@H](CCN)C(=O)O)cc3)nc2)cc1 [Compound 476]
41 | 800 to 2500 | CCCCCCCOc1ccc(-c2cnc(-c3ccc(C[C@H](NC(=O)c4ccc(C(C)(C)C)cc4)C(=O)N[C@@H](CCN)C(=O)O)cc3)nc2)cc1 [Compound 475]
42 | < 800 | CCCCCCCOc1ccc(-c2cnc(-c3ccc(C[C@H](NC(=O)c4ccc(C(C)(C)C)cc4)C(=O)N[C@H](C(=O)O)[C@@H](C)O)cc3)nc2)cc1 [Compound 450]
43 | 800 to 2500 | CCCCCCCOc1ccc(-c2cnc(-c3ccc(C[C@H](NC(=O)c4ccc(C(C)(C)C)s4)C(=O)N[C@H](C)C(=O)O)cc3)nc2)c(C)c1 [Compound 790]
44 | 800 to 2500 | CCCCCCCOc1ccc(-c2cnc(-c3ccc(C[C@H](NC(=O)c4ccc(C(C)(C)C)s4)C(=O)NS(=O)(=O)CC(=O)O)cc3)nc2)cc1 [Compound 434]
45 | < 800 | CCCCCCCOc1ccc(-c2cnc(-c3ccc(C[C@H](NC(=O)c4ccc(C(C)(C)C)s4)C(=O)NC(C(=O)O)c4ccco4)cc3)nc2)cc1 (stereo partly drawn) [Compound 412]
46 | 2500 to 5000 | CCCCCCCOc1ccc(-c2cnc(-c3ccc(C[C@H](NC(=O)c4ccc(C(C)(C)C)s4)C(=O)N4C[C@@H](F)C[C@@H]4C(=O)O)cc3)nc2)cc1 [Compound 871]
47 | 800 to 2500 | CCCCCCCOc1ccc(-c2cnc(-c3ccc(C[C@H](NC(=O)c4ccc(C(C)(C)C)cc4)C(=O)NC(CO)CC(=O)O)cc3)nc2)cc1 (stereo partly drawn) [Compound 550]
48 | 800 to 2500 | CCCCCCCOc1ccc(-c2cnc(-c3ccc(C[C@H](NC(=O)c4ccc(CC)cc4)C(=O)N4CC[C@H](C(=O)O)C4)cc3)nc2)cc1 [Compound 855]
49 | < 800 | CCCCCCCOc1ccc(-c2cnc(-c3ccc(C[C@H](NC(=O)c4ccc(C(C)(C)C)s4)C(=O)N[C@H](CC(=O)O)C(=O)NC)cc3)nc2)cc1 [Compound 630]
50 | 800 to 2500 | CCCCCCCOc1ccc(-c2cnc(-c3ccc(C[C@H](NC(=O)c4ccc(C(C)(C)C)cc4)C(=O)N[C@@H](CC(=O)O)C(=O)N4CCOCC4)cc3)nc2)cc1 [Compound 507]
51 | 800 to 2500 | CCCCCCCOc1ccc(-c2cnc(-c3ccc(C[C@H](NC(=O)c4ccc(CCC)s4)C(=O)NC(C(=O)O)C(O)c4ccccc4)cc3)nc2)cc1 (stereo partly drawn) [Compound 959]
